The record followed here is patent US20250064859A1, “HPSC-DERIVED ARTICULAR CHONDROCYTE COMPOSITIONS, SYSTEMS AND METHODS OF USE THEREOF” (The Children's Medical Center Corporation, priority 2022, published 2025).

Type in all cases: cell-based, human
One test deals with paraxial mesoderm. Description: Chondrogenic potential of day 14 paraxial mesoderm induced with (420i) or without (420) the Wnt inhibitor in stage 2. As to conditions: 420 mesoderm treated with the Wnt inhibitor from day 3-5 of differentiation/stage 2. The method, then: Five experiments were conducted, and qPCR tests were performed on the cells after 4 weeks and the data was pooled and analyzed. In a second test, 420 and 420i paraxial mesoderm cells were plated in micromass cultures supplemented with TGFβ and qPCR was performed after 12 weeks of micromass expansion. In a third test, 420 and 420i paraxial mesoderm cells were plated in serum-free monolayer culture with no additional factors and qPCR was performed following 4 weeks of culture. A second group of 420 and 420i paraxial mesoderm cells were plated in serum-free monolayer culture supplemented with either FGF alone or with a mixture of FGF, TGFβ and Forskolin (FSK). qPCR was performed after 4 weeks in culture.

Test [1] concerns monolayer-derived chondrocytes. Description: Micromasses seeded with monolayer-derived chondrocytes and treated with TGFβ or BMP; phenotype and qPCR. As to conditions: for cartilage phenotype induced in micromass culture: monolayer-derived chondrocytes plated in micromass. An excerpt: FIGS. 9A-9C are bar graphs showing relative mRNA copy number for COL10A1 (growth plate cartilage marker) (FIG. 9A), PRG4 (articular cartilage marker) (FIG. 9B) and COL2A1 (general cartilage marker) (FIG. 9C) of monolayer-derived chondrocytes (derived with either FGF-alone or the combination of TGFβ+FGF+FSK treatment) that were subsequently cultured in micromass for 6 weeks in the presence of TGFβ or BMP4 to generate articular or growth plate-like chondrocytes and cartilage tissues. FIGS. 9D-9F are bar graphs showing mRNA copy number for COL10A1 (FIG. 9D), PRG4 (FIG. 9E) and COL2A1 (FIG. 9F) of monolayer-derived chondrocytes (derived with either FGF-alone or the combination of TGFβ+FGF+FSK treatment) that were subsequently cultured in micromass (uM) for 12 weeks in the presence of TGFβ or BMP4 to generate articular or growth plate-like chondrocytes and cartilage tissues.
Micromasses were seeded with monolayer-derived chondrocytes and were treated with TGFβ to induce articular cartilage (i.e., to reproduce “superficial zone-like” chondrocytes that express PRG4) or with BMP to induce growth plate cartilage (GPC; i.e., to produce hypertrophic chondrocytes that express COL10A1). Monolayer-derived chondrocytes were generated with the following compositions: FGF alone or TGF+FGF+FSK30.
In general terms: Real-time PCR tracks product formation cycle by cycle.

Test [2] has as its system micromass cultures (hPSC-derived articular cartilage tissues). Description: BMP4 challenge of TGFβ3-treated micromass cultures; COL10A1 mRNA normalized to TBP. An excerpt:
FIGS. 17A-17C depict copy number COL10A1 mRNA normalized to TBP in micromass cultures at indicated timepoints and treatment regimens. FIG. 17A depicts copy number COL10A1 mRNA in micromass cultures treated with TGFB3 from 2-24 weeks, and in TGFB3-treated micromass cultures that were switched to BMP4-supplemented media after 2 weeks (BMP4 @2w), 2 weeks, and 4, 6, 8, 10, 12 weeks in which gene expression was quantified after 2, 6, 12, or 24 weeks after switching media to BMP4-supplementation. FIG. 17B and FIG. 17C depict copy number PRG4 (FIG. 17B) and COL10A1 (FIG. 17C) in micromass cultures after 2, 6, 12, and 24 weeks (w).
FIGS. 17A-C depict copy number COL10A1 mRNA normalized to TBP in micromass cultures at indicated timepoints and treatment regimens. […] Data represents average of 4 biological replicates, error bars indicate standard error.

Take `Cc1ccc2nc(NC(=O)CSc3nc4c(c(=O)n3-c3ccccc3)SCC4)sc2c1` [IWP2, N-(6-Methyl-2-benzothiazolyl)-2-[(3,4,6,7-tetrahydro-4-oxo-3-phenylthieno[3,2-d]pyrimidin-2-yl)thio]-acetamide]: in the test with paraxial mesoderm, the “chondrogenic potential of paraxial mesoderm” value is given as “increased chondrogenic potential”.
On to “BMP4: Bone Morphogenetic Protein 4, used to induce growth plate cartilage”, for which the “COL10A1 (hypertrophic chondrocyte/GPC gene) expression” value in test [1] (micromass, regardless of monolayer treatment prior to micromass culture) is listed as “higher”. Further, the “cartilage phenotype induced in micromass culture” value in test [1] was “induces growth plate cartilage phenotype”. Besides, the entries for the “COL10A1 mRNA response to BMP4 challenge” value in test [2] (micromass treated with TGFβ for 8 weeks or less prior to BMP4) and in test [2] (micromass treated with TGFβ for at least 10 weeks prior to BMP4) were “upregulate COL10A1 mRNA” and “do not upregulate COL10A1 mRNA”, respectively.
As to “TGFB: transforming growth factor β3, TGFβ agonist used to induce articular cartilage”, the “PRG4 (articular cartilage gene) expression” value in test [1] (micromass) is reported as “higher”. For the same molecule, the “cartilage phenotype induced in micromass culture” value in test [1] is reported as “induces articular-like cartilage phenotype”.
